# In patent US20110112100A1, “Hepatitis C Virus Inhibitors” (priority 2009, published 2011):
# Structures can show the parent of a compound that is named as a salt. Where two headings read alike, the source gives them in different places.
# How the values were obtained:
# 1b (con1) replicon cells = test: HCV 1b replicon inhibitory activity (luciferase, Britelite Plus); type: cell-based, hepatitis C virus; settings: read-out: IC50 value (95% Confidence Intervals) pM Replicon 1B assay
# Experimental: (§1) Test compounds were solubilised to 4 mM in 100% DMSO. Dilutions were made to the desired starting concentration in 100% DMSO and then 1 in 3 dilutions made, again in 100% DMSO. 0.5 μl of each sample was added to 384-well assay plates. White Lumitrac (Greiner) plates were used for the 1a and 1b replicon assays and black, clear bottomed (Greiner) plates were used for the WST-1 cytotoxity assay.
# 1b (con1) replicon cells (pFK1389lucubineo/NS3-3′/ET/9B, licensed from Ralf Bartenschlager, University of Heidelberg) were resuspended to a concentration of 1.4×10^5 cells/ml by addition of pre-warmed medium (DMEM+10% FCS). 50 μl of this suspension was added to each well of a 384-well assay plate (Lumitrac, Greiner) already containing 0.5 μl of test compound.
# All plates were covered with gas permeable seals and incubated at 37° C., 5% CO2 for 48 hours. After 48 hours, the plate was removed from the incubator and left to cool to room temperature for 15-30 mins. 35 ul of reconstituted Lyophilised Britelite Plus Substrate (PerkinElmer, 6016767) to medium was added to each well. Luminescence was read after 1 min but before 15 mins on an EnVision (Perkin Elmer) plate reader. The half maximal effective concentration (1050) values were calculated by constructing log concentration-response curves for each compound.
# 1a-H77 replicon cells = test: HCV 1a replicon inhibitory activity (Renilla luciferase); type: cell-based, hepatitis C virus; settings: read-out: IC50 value (95% Confidence Intervals) pM Replicon 1A assay
# Experimental: as §1
# 1a-H77 replicon cells (licensed from Apath LLC) were resuspended to a concentration of 1.4×10^5 cells/ml by addition of pre-warmed assay medium (Dulbecco's Modified Eagle's Medium (DMEM)+10% fetal calf serum (FCS)). 50 μl of this suspension was added to each well of a 384-well assay plate (Lumitrac, Greiner), already containing 0.5 μl of test compound.
# All plates were covered with gas permeable seals and incubated at 37° C., 5% CO2 for 48 hours. After 48 hours, the assay plate was removed from the incubator and left to cool to room temperature for 15 to 30 mins. Medium was removed from the wells and 5 μl 1× lysis buffer (from Promega's Renilla Luciferase assay kit, E2820) was added to each well. The plate was incubated at room temperature for 15 mins then 15 μl 1×Assay Substrate (from the same kit) was added to each well. Luminescence was read immediately using an EnVision (Perkin Elmer) plate reader. The half maximal effective concentration (1050) values were calculated by constructing log concentration-response curves for each compound.
# [1] = Hepatitis C virus, geometric mean, 95% confidence intervals in parentheses, 48 hours, medium with 10% FCS
# [2] = geometric mean, 95% confidence intervals in parentheses, 48 hours, medium with 10% FCS
Compound,IC50 (1b (con1) replicon cells; [1]) [pM],IC50 (1a-H77 replicon cells; [1]) [pM],IC50 (1b (con1) replicon cells; [2]) [pM],IC50 (1a-H77 replicon cells; [2]) [pM],"IC50 (1b (con1) replicon cells; Hepatitis C virus, 48 h) [pM]","IC50 (1a-H77 replicon cells; Hepatitis C virus, 48 h) [pM]"
"COC(=O)N[C@H](C(=O)N1CCC[C@H]1c1ncc(-c2ccc(-c3cnc4cc(-c5cnc([C@@H]6CCCN6C(=O)[C@@H](NC(=O)OC)C(C)C)[nH]5)ccc4n3)nc2)[nH]1)C(C)C [Example 9, Methyl {(2S)-1-[(2S)-2-{5-[6-(6-{2-[(2S)-1-{(2S)-2-[(methoxycarbonyl)amino]-3-methyl-butanoyl}pyrrolidin-2-yl]-1H-imidazol-5-yl}quinoxalin-2-yl)pyridin-3-yl]-1H-imidazol-2-yl}pyrrolidin-1-yl]-3-methyl-1-oxobutan-2-yl}carbamate]",12.7,42.9,,,,
"COC(=O)N[C@H](C(=O)N1CCC[C@H]1c1nc(-c2ccc(-c3cnc4cc(-c5cnc([C@@H]6CCCN6C(=O)CNC(=O)CC(C)C)[nH]5)ccc4n3)cc2)c[nH]1)C(C)C [Example 33, Methyl {(2S)-3-methyl-1-[(2S)-2-(4-{4-[6-(2-{(2S)-1-[N-(3-methylbutanoyl)glycyl]pyrrolidin-2-yl}-1H-imidazol-5-yl)quinoxazolin-2-yl]phenyl}-1H-imidazol-2-yl}pyrrolidin-1-yl]-1-oxobutan-2-yl} carbamate trifluoroacetic acid salt]",,,32.2,2590,,
"COC(=O)N[C@H](C(=O)N1CCC[C@H]1c1nc(-c2cnc(-c3cnc4cc(-c5cnc([C@@H]6CCCN6C(=O)[C@@H](NC(=O)OC)C(C)C)[nH]5)ccc4n3)nc2)c[nH]1)C(C)C [Example 21, Methyl {(2S)-1-[(2S)-2-{5-[2-(5-{2-[(2S)-1-{(2S)-2-[(methoxycarbonyl)amino]-3-methylbutanoyl}pyrrolidin-2-yl]-1H-imidazol-4-yl}pyrimidin-2-yl)quinoxalin-6-yl]-1H-imidazol-2-yl}pyrrolidin-1-yl]-3-methyl-1-oxobutan-2-yl}carbamate]",222,671,,,,
"COC(=O)N[C@H](C(=O)N1CCC[C@H]1c1nc(-c2ccc(-c3cnc4cc(-c5cnc([C@@H]6CCCN6C(=O)CNC(=O)c6cc(C)on6)[nH]5)ccc4n3)cc2)c[nH]1)C(C)C [Example 42, Methyl {(2S)-3-methyl-1-[(2S)-2-{4-[4-(6-{2-[(2S)-1-{N-[(5-methylisoxazol-3-yl)carbonyl]glycyl}pyrrolidin-2-yl]-1H-imidazol-5-yl}quinoxalin-2-yl)phenyl]-1H-imidazol-2-yl}pyrrolidin-1-yl]-1-oxobutan-2-yl}carbamate trifluoroacetic acid salt]",,,,,247,2870
Methyl {(2S)-1-[(2S)-2-{4-[4-(6-{2-[(2S)- 1-{(2S)-3-tert-butoxy-2-[(methoxy carbonyl)amino]propanoyl}pyrrolidin-2- yl]-1H-imidazol-5-yl}quinoxalin-2-yl) phenyl]-1H-imidazol-2-yl}pyrrolidin-1-yl]- 3-methyl-1-oxobutan-2-yl}carbamate trifluoroacetic acid salt [Example 81],,,13.7,44,,
"COC(=O)N[C@H](C(=O)N1CCC[C@H]1c1nc(-c2ccc(-c3cnc4cc(-c5cnc([C@@H]6CCCN6C(=O)[C@@H](NC(C)=O)[C@@H](C)O)[nH]5)ccc4n3)cc2)c[nH]1)C(C)C [Example 40, Methyl {(2S)-1-[(2S)-2-{4-[4-(6-{2-[(2S)-1-(N-acetyl-L-threonyl)pyrroldiin-2-yl]-1H-imidazol-5-yl}quinoxalin-2-yl)phenyl]-1H-imidazol-2-yl}pyrrolidin-1-yl]-3-methyl-1-oxobutan-2-yl}carbamate trifluoroacetic acid salt]",,,55.8,353,,
"COC(=O)N[C@H](C(=O)N1CCC[C@H]1c1nc(-c2ccc(-c3cnc4cc(-c5cnc([C@@H]6CCCN6C(=O)CNC(=O)c6ccc7[nH]cnc7c6)[nH]5)ccc4n3)cc2)c[nH]1)C(C)C [Example 43, Methyl {(2S)-1-[(2S)-2-(4-{4-[6-(2-{(2S)-1-[N-(1H-benzimidazol-5-ylcarbonyl)glycyl]pyrrolidin-2-yl}-1H-imidazol-5-yl)quinoxalin-2-yl]phenyl}-1H-imidazol-2-yl)pyrrolidin-1-yl]-3-methyl-1-oxobutan-2-yl}carbamate trifluoroacetic acid salt]",,,,,388,787
"CC[C@H](NC(=O)OC)C(=O)N1CCC[C@H]1c1ncc(-c2ccc3cc(-c4ccc(-c5cnc([C@@H]6CCCN6C(=O)[C@@H](NC(=O)OC)C(C)C)[nH]5)cc4)ccc3c2)[nH]1 [Example 26, Methyl {(2S)-1-[(2S)-2-{5-[4-(6-{2-[(2S)-1-{(2S)-2-[(methoxycarbonyl)amino]butanoyl}pyrrolidin-2-yl]-1H-imidazol-5-yl}naphthalen-2-yl)phenyl]-1H-imidazol-2-yl}pyrrolidin-1-yl]-3-methyl-1-oxobutan-2-yl}carbamate]",1.92,64.1,,,,
"COC(=O)N[C@H](C(=O)N1CCC[C@H]1c1nc(-c2ccc(-c3cnc4cc(-c5cnc([C@@H]6CCCN6C(=O)[C@@H](Cc6c[nH]c7ccccc67)NC(=O)OC)[nH]5)ccc4n3)cc2)c[nH]1)C(C)C [Example 82, Methyl {(2S)-1-[(2S)-2-{4-[4-(6-{2-[(2S)-1-{(2R)-3-(1H-indol-3-yl)-2-[(methoxycarbonyl)amino]propanoyl}pyrrolidin-2-yl]-1H-imidazol-5-yl}quinoxalin-2-yl)phenyl]-1H-imidazol-2-yl}pyrrolidin-1-yl]-3-methyl-1-oxobutan-2-yl}carbamate trifluoroacetic acid salt]",,,,,190,490
"COC(=O)N[C@H](C(=O)N1CCC[C@H]1c1ncc(-c2cnc(-c3ccc4cc(-c5cnc([C@@H]6CCCN6C(=O)[C@@H](NC(=O)OC)C(C)C)[nH]5)ccc4c3)nc2)[nH]1)C(C)C [Example 7, Methyl {(2S)-1-[(2S)-2-{5-[6-(5-{2-[(2S)-1-{(2S)-2-[(methoxycarbonyl)amino]-3-methyl-butanoyl}pyrrolidin-2-yl]-1H-imidazol-5-yl}pyrimidin-2-yl)naphthalen-2-yl]1H-imidazol-2-yl}pyrrolidin-1-yl]-3-methyl-1-oxobutan-2-yl}carbamate]",21.4,68.4,,,,
"COC(=O)N[C@H](C(=O)N1CCC[C@H]1c1nc(-c2ccc(-c3cnc4cc(-c5cnc([C@@H]6CCCN6C(=O)[C@@H](Cc6ccccn6)NC(=O)OC)[nH]5)ccc4n3)cc2)c[nH]1)C(C)C [Example 83, Methyl {(2S)-1-[(2S)-2-(4-{4-[6-(2-{(2S)-1-[(2R)-2-[(methoxycarbonyl)amino]-3-(pyridin-2-yl)propanoyl]pyrrolidin-2-yl}-1H-imidazol-5-yl)quinoxalin-2-yl]phenyl}-1H-imidazol-2-yl)pyrrolidin-1-yl]-3-methyl-1-oxobutan-2-yl}carbamate trifluoroacetic acid salt]",,,,,53.4,1030
"COC(=O)N[C@@H](CC1CCCCC1)C(=O)N1CCC[C@H]1c1ncc(-c2ccc3nc(-c4ccc(-c5c[nH]c([C@@H]6CCCN6C(=O)[C@@H](NC(=O)OC)C(C)C)n5)cc4)cnc3c2)[nH]1 [Example 80, Methyl {(2S)-1-[(2S)-2-(4-{4-[6-(2-{(2S)-1-[3-cyclohexyl-N-(methoxycarbonyl)alanyl]pyrrolidin-2-yl}-1H-imidazol-5-yl)quinoxalin-2-yl]phenyl}-1H-imidazol-2-yl)pyrrolidin-1-yl]-3-methyl-1-oxobutan-2-yl} carbamate]",,,11.4,117,,
"CC[C@@H](NC(C)=O)C(=O)N1CCC[C@H]1c1ncc(-c2ccc3nc(-c4ccc(-c5c[nH]c([C@@H]6CCCN6C(=O)[C@@H](NC(=O)OC)C(C)C)n5)cc4)cnc3c2)[nH]1 [Example 38, Methyl {(2S)-1-[(2S)-2-(4-{4-[6-(2-{(2S)-1-[(2R)-2-(acetylamino)butanoyl]pyrrolidin-2-yl}-1H-imidazol-5-yl)quinoxalin-2-yl]phenyl}-1H-imidazol-2-yl)pyrrolidin-1-yl]-3-methyl-1-oxobutan-2-yl} carbamate trifluoroacetic acid salt]",,,71.9,1500,,
